Measurements: patent US9637523B2 (priority 2012, dated 2017)
“Also recorded” adds a separate entry of the source.

Tests used:
avian IAV FPV = type: cell-based
human IAV PR8 = type: cell-based
[1] = system: polymerase subunits PB1, PB2, PA and NP of the avian IAV FPV-Rostock; type: cell-based, A/FPV/Rostock/34 (H7N1)
[2] = system: PB1, NS1, NP and M1 of IAV; type: cell-based

`Cc1ccc(NC(=O)c2ccc(CN3CCN(C)CC3)cc2)cc1Nc1nccc(-c2cccnc2)n1` [Imatinib] was tested, and the “replication (progeny virus yields) of avian IAV FPV” value (avian IAV FPV) was “interferes with replication properties of the avian IAV FPV in a concentration dependent manner; also recorded: only efficient upon low dose infection”, the “replication (progeny virus yields) of human IAV PR8” value (human IAV PR8) was “absolutely independent of the tyrosine kinase activity of c-Abl” and the “viral polymerase activity (luciferase)” value [1] was “neither detect an impact”. The viral protein expression [2] was “neither detect an impact”.
